Tests used:
[1] = Experimental lipophilicity as RM values by RPTLC; assay type: physicochemical; parameters: key: RM = log[(1/Rf) − 1], from Rf values by RPTLC; conditions: methanol/water 70/30, 24 °C, average of at least 5 measurements
Description: Lipophilicity is a physicochemical parameter indicating the relationship of a drug to its biological activity. It affects ligand-target binding interactions, solubility, ADME (absorption, distribution, bioavailability, metabolism, and elimination) and toxicological effects. RPTLC (reverse phase thin layer chromatography) method was used for the experimental determination, as RM values. The RPTLC method is considered a secure, rapid and appropriate method for expressing the lipophilic character of a compound (Table 1).
Reversed phase TLC (RPTLC) was performed on silica gel plates impregnated with 5% (v/v) liquid paraffin in light petroleum ether. The mobile phase was a methanol/water mixture (70/30, v/v). The plates were developed in closed chromatography tanks saturated with the mobile phase at 24 °C. Spots were detected under UV light. Five individual measurements of Rf values were recorded and used for the determination of RM using the equation RM = log [(1/Rf) − 1] [59, 60, 62] (Table 2).

[2] = Inhibition of linoleic acid peroxidation induced by AAPH; assay type: biochemical; conditions: no = no action under the experimental conditions
Description: In the water soluble 2,2′-azobis(2-amidinopropane) hydrochloride (AAPH) the free radicals are produced in vitro through spontaneous thermal decomposition resembling to lipid peroxidation in cells due to the action of the peroxyl radicals. […] Compounds 11, 5, 4 and 3 presented no activity under the experimental conditions. From the experimental results it can be concluded that the 3,5-di-tert-butyl-group offers protection against lipid peroxidation. Electronic parameters expressed by the highest occupied molecular orbital (HOMO) describes better the biological activity (Equation (2)). log AAPH % = −22.042(± 8.731) HOMO − 4.853 (2.622)(2) n = 8, r = 0.930, r^2 = 0.864, q^2 = 0.567, s = 0.146, F1,8 = 5.783, α = 0.1
The oxidation reaction was started with 2,2′-Azobis(2-amidinopropane) dihydrochloride (AAPH) as a free radical initiator. Linoleic acid sodium salt was oxidized at 234 nm to a conjugated diene hydroperoxide resulting an increased absorption. Trolox was used as reference compound (93%) (Table 3).

[3] = ABTS+. decolorization assay; assay type: biochemical; conditions: 1 min, no = no action under the experimental conditions
Description: The radical cation ABTS^+• is directly generated through potassium persulfate by oxidation with no participation of an intermediary radical and then the reduction is followed by adding electron-donating antioxidants. In this assay the radical is generated before adding the antioxidant (decolorization assay). […] It seems that lipophilicity influences the activity, since both are presenting high lipophilicity values. […] The radical cation ABTS^+• was generated from an ABTS stock solution in water (7 mM) which was mixed with potassium persulfate (2.45 mM) and left in the dark at room temperature for 12–16 h before use. The results are recorded after 1min of the mixing solutions at 734 nm and compared to the appropriate standard inhibitor Trolox (Table 3).

[4] = system: trypsin; assay: In vitro inhibition of trypsin induced proteolysis; assay type: biochemical; conditions: bovine albumin substrate, no = no action under the experimental conditions
Procedure: Serine proteases are implicated in the pathophysiology of inflammatory diseases and trypsin is well known years ago [66]. Trypsin has been associated with host defense reactions and tissue damage. In this study, the novel derivatives have been evaluated towards trypsin and thrombin. Compounds 8 and 9 present high activity.
The Kunitz method was used after modification using bovine albumin was used as substrate for trypsin. In this assay, first 200 μL of 0.075 mg/mL trypsin and 780 μL of phosphate buffer pH 7.6 including the tested compounds (20 μL in DMSO, final concentration 100 μM) were pre-incubated at 37 °C for 20 min and then added 1 mL of albumin (stock solution 6 g/100 mL in phosphate buffer 0.1 M, pH 7.6) and incubated at 37 °C for 30 min. Secondly 1mLof 5% trichloroacetic acid was added to the incubated solution to stop the enzyme’s reaction and allowed to set at room temperature for 1 h. Then the solution was filtered, and the absorption of the filtrate was measured at 280 nm using salicylic acid as a reference compound [61] (Table 3).

[5] = target: T1, bovine thrombin (Bos taurus, UniProt P00735); assay: In vitro inhibition of thrombin; assay type: biochemical; conditions: substrate tosyl-Gly-Pro-Arg-pNA, no = no action under the experimental conditions; for inhibition at 100 µM: read-out: TH% 100 µM (thrombin inhibition)
T1 construct: purchased Sigma Chemical, Co. (St. Louis)
Procedure: It is well known that indandione derivatives exert their anticoagulant activity indirectly by inhibiting prothrombin synthesis in the liver. […] Derivatives 1, 2, 5, 8, 9, 10, and 12 were tested in vitro as possible thrombin inhibitors. Among the tested derivatives compound 8 presented 100% inhibition followed by compounds […] and 10.
As a substrate tosyl-Gly-Pro-Arg-pNA acetate salt was used at 1 mM final concentration. Compounds were dissolved at a final concentration of […] in a Tris-buffer (0.05 M Tris, 0.154 M NaCl, ethanol 5%, pH = 8.0). Three minutes after the addition of bovine thrombin (2.5 unit/mg), the reaction was ended by adding 1 mL acetic acid 50%. The absorption of the released p-nitro-aniline was measured at 405 nm (Table 3). Warfarin and Inogatran were used as reference compounds.

[6] = Superoxide anion radical scavenging activity (PMS/NADPH/NBT); assay type: biochemical; conditions: 100 μM (stated for compound 3)
Procedure: The compounds have been tested to scavenge superoxide anion radicals. However, no results were recorded under the experimental conditions.
The superoxide anion producing system was set up by mixing PMS, NADPH, and air oxygen. The production of superoxide anion was estimated by the nitrobluetetrazole NBT method. The reaction mixture containing compounds, 3 μM PMS, 78 μM NADPH, and 25 μM NBT in […] phosphate buffer pH 7.4 was incubated for 2 min at room temperature and the absorption was measured at 560 nm against a blank containing PMS. The tested compounds were pre-incubated for 2 min before adding NADPH. Caffeic acid was used as an appropriate standard (76%).

SMILES | RM (±SD) [1] | melting point [°C] | inhibition at 100 µM [5] [%] | TH% 100 µM (thrombin inhibition) [5] | AAPH% 100 µM (anti-lipid peroxidation) [2] | ABTS+. % 100 µM (decolorization activity) [3] | Iptr% 100 µM (inhibition of trypsin induced proteolysis) [4] | superoxide anion scavenging activity [6] [%]
O=C1C(=Cc2c[nH]c3ccccc23)C(=O)c2ccccc21 [Compound 12, (Z)-2-((1H-indol-3-yl)methylene)-1H-indene-1,3(2H)-dione] | −0.134 ± 0.02 | 283 to 285 | – | – | 31% | no | do not present any activity and no | –
CC(C)(C)c1cc(C=C2C(=O)c3ccccc3C2=O)cc(C(C)(C)C)c1O [Compound 10, (Z)-2-(3,5-di-tert-butyl-4-hydroxybenzylidene)-1H-indene-1,3(2H)-dione] | −0.103 ± 0 | 98 to 100 | 27 | – | 85% | 39% | do not present any activity and no | –
Cc1ccsc1C=C1C(=O)c2ccccc2C1=O [Compound 2, (Z)-2-((3-methylthiophen-2-yl)methylene)-1H-indene-1,3(2H)-dione] | 0.031 ± 0 | 171 to 172 | – | – | 92% | 2% | do not present any activity and no | –
CN(C)c1ccc(/C=C\C=C2C(=O)c3ccccc3C2=O)cc1 [Compound 6, (Z)-2-(3-(4-(dimethylamino)phenyl)allylidene)-1H-indene-1,3(2H)-dione] | −0.527 ± 0 | 85 to 87 | 19 | – | 9% | 22% | 29% | –
CC(C)(C)c1cc(C=C2C(=O)c3ccccc3C2=O)c(O)c(C(C)(C)C)c1 [Compound 9, (Z)-2-(3,5-di-tert-butyl-2-hydroxybenzylidene)-1H-indene-1,3(2H)-dione] | −1.038 ± 0 | 52 to 54 | 0 | – | 96% | no | 98% | –

Further lines, with some results ahead:

RM (±SD) [1] | melting point [°C] | inhibition at 100 µM [5] [%] | TH% 100 µM (thrombin inhibition) [5] | SMILES | AAPH% 100 µM (anti-lipid peroxidation) [2] | ABTS+. % 100 µM (decolorization activity) [3] | Iptr% 100 µM (inhibition of trypsin induced proteolysis) [4] | superoxide anion scavenging activity [6] [%]
– | 222 to 224 | 100 | – | O=C1C(=Cc2ccc(OCc3ccc(Br)cc3)cc2)C(=O)c2ccccc21 [Compound 8, (Z)-2-(4-((4-bromobenzyl)oxy)benzylidene)-1H-indene-1,3(2H)-dione] | 79% | 16% | 85% | –
−0.196 ± 0.02 | 143 to 145 | – | no | O=C1C(=Cc2cccc(Oc3ccccc3)c2)C(=O)c2ccccc21 [Compound 7, (Z)-2-(3-phenoxybenzylidene)-1H-indene-1,3(2H)-dione] | 82% | 37% | 33% | –
0.014 ± 0 | – | 39 | – | Cc1ccc(C=C2C(=O)c3ccccc3C2=O)o1 [Compound 3, (Z)-2-((5-methylfuran-2-yl)methylene)-1H-indene-1,3(2H)-dione] | no activity and no | 20% | 17% | 20
−0.615 ± 0.02 | – | – | no | O=C1C(=Cc2ccccc2)C(=O)c2ccccc21 [Compound 4, 2-benzylidene-1H-indene-1,3(2H)-dione] | no activity and no | 19% | 4% | –

Source: PMC6930570, “2-Arylidene-1-indandiones as Pleiotropic Agents with Antioxidant and Inhibitory Enzymes Activities” (Molecules, 2019)
